# Measured values from patent US10981894B2, “Melanocortin subtype-2 receptor (MC2R) antagonists and uses thereof” (Crinetics Pharmaceuticals, Inc., priority 2018, dated 2021).
# Target: hMC2 receptor (Homo sapiens, UniProt Q01718)
# Assay: hMC2 membrane binding assay ([125I]ACTH (1-39) Tyr23, SPA)
# Parameters: scale not given here
# Conditions: crude hMC2R membranes from CRE-bla-CHO-K1 cells expressing hMC2 receptor and hMRAP; [125I]ACTH (1-39) Tyr23 0.2 nM; 1.5 hours at room temperature; read-out: MC2R binding potency
# Summary of the method: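 Ki comes from non-linear regression of SPA scintillation counts. Displacement of 0.2 nM [125I]ACTH(1-39) Tyr23 by compound dose series (usually 0–10,000 nM final) ran 1.5 h at room temperature. Membranes came from CHO-K1 CRE-bla cells stably expressing hMC2R plus hMRAP, bead-coupled in pH 7.4 buffer with 0.2% BSA.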
# Sequence of hMC2 receptor (Q01718 whole entry): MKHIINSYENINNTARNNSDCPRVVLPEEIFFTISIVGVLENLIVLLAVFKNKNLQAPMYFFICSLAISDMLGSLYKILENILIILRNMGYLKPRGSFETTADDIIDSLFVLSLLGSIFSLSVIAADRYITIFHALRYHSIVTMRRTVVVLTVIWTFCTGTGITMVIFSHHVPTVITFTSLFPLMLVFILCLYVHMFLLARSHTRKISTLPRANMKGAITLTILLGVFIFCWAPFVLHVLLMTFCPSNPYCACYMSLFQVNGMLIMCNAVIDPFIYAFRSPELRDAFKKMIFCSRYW
# Sequence of hMC2 receptor (Q8TCY5 whole entry partner): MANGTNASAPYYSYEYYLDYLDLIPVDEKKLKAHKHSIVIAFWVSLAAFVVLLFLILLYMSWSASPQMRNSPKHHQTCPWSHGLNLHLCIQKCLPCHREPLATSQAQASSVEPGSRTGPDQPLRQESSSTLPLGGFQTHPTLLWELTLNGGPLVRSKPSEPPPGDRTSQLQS
row,Ki [nM],SMILES
1,< 10,"CCOc1ncccc1-c1ccc(N2CCN(C(=O)c3ccc(Cl)cc3C(F)(F)F)C[C@H]2CC)c(C(=O)NCCNC)c1 [Compound 1-46, 2-[(2R)-4-[4-chloro-2-(trifluoromethyl)benzoyl]-2-ethylpiperazin-1-yl]-5-(2-ethoxypyridin-3-yl)-N-[2-(methylamino)ethyl]benzamide]"
2,< 10,"CCOc1ccccc1-c1ccc(N2CCN(C(=O)N3CCc4cccc(C#N)c43)C[C@H]2CC)c(C(=O)N[C@@H]2CCN(C)C2)n1 [Compound 1-393, 3-[(2R)-4-(7-cyano-2,3-dihydro-1H-indole-1-carbonyl)-2-ethylpiperazin-1-yl]-6-(2-ethoxyphenyl)-N-[(3R)-1-methylpyrrolidin-3-yl]pyridine-2-carboxamide]"
3,< 10,"CCOc1ccccc1-c1ccc(N2CCN(C(=O)c3ccc(OC)nc3C(F)(F)F)C[C@H]2CC)c(C(=O)NC2CN(C)C2)n1 [Compound 1-236, 6-(2-ethoxyphenyl)-3-[(2R)-2-ethyl-4-[6-methoxy-2-(trifluoromethyl)pyridine-3-carbonyl]piperazin-1-yl]-N-(1-methylazetidin-3-yl)pyridine-2-carboxamide]"
4,< 10,"CCOc1ncccc1-c1ccc(N2CCN(C(=O)c3ccc(C)cc3N3CC[C@H](NC)C3)C[C@H]2CC)c(C(=O)N[C@@H]2CCNC2)c1 [Compound 1-94, 5-(2-ethoxypyridin-3-yl)-2-[(2R)-2-ethyl-4-{4-methyl-2-[(3S)-3-(methylamino)pyrrolidin-1-yl]benzoyl}piperazin-1-yl]-N-[(3R)-pyrrolidin-3-yl]benzamide]"
5,< 10,"CCOc1ncccc1-c1ccc(N2CCN(C(=O)c3ccc(C(F)(F)F)cc3N3CCC(CN)C3)C[C@H]2CC)c(C(=O)NCCN)c1 (stereo partly drawn) [Compound 1-50, N-(2-aminoethyl)-2-[(2R)-4-{2-[3-(aminomethyl)pyrrolidin-1-yl]-4-(trifluoromethyl)benzoyl}-2-ethylpiperazin-1-yl]-5-(2-ethoxypyridin-3-yl)benzamide]"
6,< 10,"CCOc1ncccc1-c1ccc(N2CCN(C(=O)C3(CC)CCCC3)C[C@H]2CC)c(C(=O)NCCNC)n1 [Compound 1-264, 2′-ethoxy-5-[(2R)-2-ethyl-4-(1-ethylcyclopentanecarbonyl)piperazin-1-yl]-N-[2-(methylamino)ethyl]-[2,3′-bipyridine]-6-carboxamide]"
7,< 10,"CCOc1ncccc1-c1ccc(N2CCN(C(=O)c3ccc(Cl)cc3C(F)(F)F)C[C@H]2CC)c(C(=O)N[C@@H]2CNC[C@H]2F)n1 [Compound 1-276, 5-[(2R)-4-[4-chloro-2-(trifluoromethyl)benzoyl]-2-ethylpiperazin-1-yl]-2′-ethoxy-N-[(3R,4R)-4-fluoropyrrolidin-3-yl]-[2,3′-bipyridine]-6-carboxamide]"
8,< 10,"CCOc1ncccc1-c1ccc(N2CCN(C(=O)c3ccc(Cl)cc3C(F)(F)F)C[C@H]2CC)c(C(=O)N[C@H]2CCNC2)c1F [Compound 1-200, 6-[(2R)-4-[4-chloro-2-(trifluoromethyl)benzoyl]-2-ethylpiperazin-1-yl]-3-(2-ethoxypyridin-3-yl)-2-fluoro-N-[(3S)-pyrrolidin-3-yl]benzamide]"
9,< 10,"CCOc1ncccc1-c1ccc(N2CCN(C(=O)OC(C(C)(C)C)C(F)(F)F)C[C@H]2CC)c(C(=O)N[C@@H]2CCNC2)n1 (stereo partly drawn) [Compound 1-312, 1,1,1-trifluoro-3,3-dimethylbutan-2-yl (3R)-4-(2′-ethoxy-6-{[(3R)-pyrrolidin-3-yl]carbamoyl}-[2,3′-bipyridin]-5-yl)-3-ethylpiperazine-1-carboxylate]"
10,< 10,"CCOc1ncccc1-c1ccc(N2CCN(C(=O)c3ccc(F)cc3C(F)F)C[C@H]2CC)c(C(=O)N[C@@H]2CCNC2)n1 [Compound 1-278, 5-[(2R)-4-[2-(difluoromethyl)-4-fluorobenzoyl]-2-ethylpiperazin-1-yl]-2′-ethoxy-N-[(3R)-pyrrolidin-3-yl]-[2,3′-bipyridine]-6-carboxamide]"
11,< 10,"CCOc1ncccc1-c1ccc(N2CCN(C(=O)O[C@@H](C(C)(C)C)C(F)(F)F)C[C@H]2CC)c(C(=O)N[C@@H]2CCN(C)C2)n1 (single isomer, unassigned) [Compound 1-407]"
12,< 10,"CCOc1ncccc1-c1ccc(N2CCN(C(=O)C3(C(F)F)CCCC3)C[C@H]2CC)c(C(=O)N[C@@H]2CCN(C)C2)n1 [Compound 1-416, 5-[(2R)-4-[1-(difluoromethyl)cyclopentanecarbonyl]-2-ethylpiperazin-1-yl]-2′-ethoxy-N-[(3R)-1-methylpyrrolidin-3-yl]-[2,3′-bipyridine]-6-carboxamide]"
13,< 10,"CCOc1ncccc1-c1ccc(N2CCN(C(=O)C3(C(F)(F)F)CCCC3)C[C@H]2CC)c(C(=O)NC[C@@H]2CCN2)n1 [Compound 1-329, N-{[(2S)-azetidin-2-yl]methyl}-2′-ethoxy-5-[(2R)-2-ethyl-4-[1-(trifluoromethyl)cyclopentanecarbonyl]piperazin-1-yl]-[2,3′-bipyridine]-6-carboxamide]"
14,10 to 100,"CC[C@@H]1CN(C(=O)c2ccc(C(F)(F)F)cc2Cl)CCN1c1ccc(-c2ccccc2C)cc1C(=O)NCCN [Compound 1-8, N-(2-aminoethyl)-4-[(2R)-4-[2-chloro-4-(trifluoromethyl)benzoyl]-2-ethylpiperazin-1-yl]-2′-methyl-[1,1′-biphenyl]-3-carboxamide]"
15,< 10,"CCOc1ncccc1-c1ccc(N2CCN(C(=O)c3ccc(Cl)cc3C(F)(F)F)C[C@H]2CC)c(C(=O)NCC2=NCCN2)c1 [Compound 1-125, 2-[(2R)-4-[4-chloro-2-(trifluoromethyl)benzoyl]-2-ethylpiperazin-1-yl]-N-[(4,5-dihydro-1H-imidazol-2-yl)methyl]-5-(2-ethoxypyridin-3-yl)benzamide]"
16,< 10,"CCOc1ncccc1-c1ccc(N2CCN(C(=O)N3CCc4cccc(Cl)c43)C[C@H]2CC)c(C(=O)N[C@@H]2CCNC2)n1 [Compound 1-346, 5-[(2R)-4-(7-chloro-2,3-dihydro-1H-indole-1-carbonyl)-2-ethylpiperazin-1-yl]-2′-ethoxy-N-[(3R)-pyrrolidin-3-yl]-[2,3′-bipyridine]-6-carboxamide]"
17,< 10,"CCOc1ncccc1-c1ccc(N2CCN(C(=O)OC(C(C)(C)C)C(F)(F)F)C[C@H]2CC)c(C(=O)N[C@@H]2CCN(C)C2)n1 (single isomer, unassigned) [Compound 1-392, (2S*)-1,1,1-trifluoro-3,3-dimethylbutan-2-yl (3R)-4-(2′-ethoxy-6-{[(3R)-1-methylpyrrolidin-3-yl]carbamoyl}-[2,3′-bipyridin]-5-yl)-3-ethylpiperazine-1-carboxylate]"
18,< 10,"CCOc1ncccc1-c1ccc(N2CCN(C(=O)c3ccc(Cl)cc3C(F)(F)F)C[C@H]2CC)c(C(=O)NC[C@@H]2CCN2C)c1F [Compound 1-229, 6-[(2R)-4-[4-chloro-2-(trifluoromethyl)benzoyl]-2-ethylpiperazin-1-yl]-3-(2-ethoxypyridin-3-yl)-2-fluoro-N-{[(2S)-1-methylazetidin-2-yl]methyl}benzamide]"
19,< 10,"CCOc1ncccc1-c1ccc(N2CCN(C(=O)c3ccc(Cl)cc3C(F)(F)F)C[C@H]2CC)c(C(=O)NC[C@H]2CCCN2)c1F [Compound 1-124, 6-[(2R)-4-[4-chloro-2-(trifluoromethyl)benzoyl]-2-ethylpiperazin-1-yl]-3-(2-ethoxypyridin-3-yl)-2-fluoro-N-{[(2R)-pyrrolidin-2-yl]methyl}benzamide]"
20,< 10,"CCOc1ccccc1-c1ccc(N2CCN(C(=O)C3(C(F)F)CCCC3)C[C@H]2CC)c(C(=O)N[C@@H]2CCN(C)C2)n1 [Compound 1-417, 3-[(2R)-4-[1-(difluoromethyl)cyclopentanecarbonyl]-2-ethylpiperazin-1-yl]-6-(2-ethoxyphenyl)-N-[(3R)-1-methylpyrrolidin-3-yl]pyridine-2-carboxamide]"
21,< 10,"CCOc1ncccc1-c1ccc(N2CCN(C(=O)c3ccc(OC)nc3C(F)(F)F)C[C@H]2CC)c(C(=O)N[C@@H]2CN(C)C[C@H]2F)n1 [Compound 1-290, 2′-ethoxy-5-[(2R)-2-ethyl-4-[6-methoxy-2-(trifluoromethyl)pyridine-3-carbonyl]piperazin-1-yl]-N-[(3R,4R)-4-fluoro-1-methylpyrrolidin-3-yl]-[2,3′-bipyridine]-6-carboxamide]"
22,< 10,"CCOc1ncccc1-c1ccc(N2CCN(C(=O)c3ccc(Cl)cc3C(F)(F)F)C[C@H]2CC)c(C(=O)NCCNC)c1F [Compound 1-95, 6-[(2R)-4-[4-chloro-2-(trifluoromethyl)benzoyl]-2-ethylpiperazin-1-yl]-3-(2-ethoxypyridin-3-yl)-2-fluoro-N-[2-(methylamino)ethyl]benzamide]"
23,< 10,"CCOc1ncccc1-c1ccc(N2CCN(C(=O)c3ccc(Cl)cc3C(F)(F)F)C[C@H]2CC)c(C(=O)NCCc2ncc[nH]2)c1 [Compound 1-93, 2-[(2R)-4-[4-chloro-2-(trifluoromethyl)benzoyl]-2-ethylpiperazin-1-yl]-5-(2-ethoxypyridin-3-yl)-N-[2-(1H-imidazol-2-yl)ethyl]benzamide]"
24,< 10,"CCOc1ncccc1-c1ccc(N2CCN(C(=O)c3ccc(OC)nc3C(F)(F)F)C[C@H]2CC)c(C(=O)NC[C@@H]2CCN2)n1 [Compound 1-244, N-{[(2S)-azetidin-2-yl]methyl}-2′-ethoxy-5-[(2R)-2-ethyl-4-[6-methoxy-2-(trifluoromethyl)pyridine-3-carbonyl]piperazin-1-yl]-[2,3′-bipyridine]-6-carboxamide]"
25,< 10,"CCOc1ncccc1-c1ccc(N2CCN(C(=O)c3ccc(OC)nc3C(F)(F)F)C[C@H]2CC)c(C(=O)N[C@H]2CN(C)C[C@H]2F)n1 [Compound 1-296, 2′-ethoxy-5-[(2R)-2-ethyl-4-[6-methoxy-2-(trifluoromethyl)pyridine-3-carbonyl]piperazin-1-yl]-N-[(3S,4R)-4-fluoro-1-methylpyrrolidin-3-yl]-[2,3′-bipyridine]-6-carboxamide]"
